pIC50: −log10 of the molar value. “And” between values parts separate entries of the source, which are not always exact repeats. Equal entries are not always repeated.
What was measured:
Type in all cases: cell-based
PC3 cells = test: cytotoxicity test, inhibition of cellular growth, PC3 cells; conditions: triplicate; for inhibition percentage of cellular growth: 10^−5M
Protocol: (§1) The first cytotoxicity tests were conducted on different cell lines such as KB, PC3, MCF7 and MCF7R, SF268, HL60, HT29, A549 cells at concentrations of 10^−5M in triplicate. Podophyllotoxin 1 and etoposide 2 were also tested under the same conditions as standards.
(§2) The results are expressed as an inhibition percentage of cellular growth.

HT29 cells = test: cytotoxicity test, inhibition of cellular growth, HT29 cells; conditions: triplicate; for inhibition percentage of cellular growth: 10^−5M
Protocol: as §1, §2

A549 cells = test: cytotoxicity test, inhibition of cellular growth, A549 cells; conditions: 10^−5M, triplicate
Protocol: as §1, §2

SF268 cells = test: cytotoxicity test, inhibition of cellular growth, SF268 cells; conditions: triplicate; for inhibition percentage of cellular growth: 10^−5M
Protocol: as §1, §2

KB cells [1] = test: cytotoxicity test, inhibition of cellular growth, KB cells; conditions: 10^−5M; for inhibition percentage of cellular growth / inhibition at 10 µM: triplicate; for inhibition at 10 µM: Homo sapiens, read-out: inhibition percentage of cellular growth
Protocol: as §1, §2

MCF7R cells = test: cytotoxicity test, inhibition of cellular growth, MCF7R cells; conditions: 10^−5M, triplicate
Protocol: as §1, §2

MCF7 cells = test: cytotoxicity test, inhibition of cellular growth, MCF7 cells; conditions: 10^−5M, triplicate
Protocol: as §1, §2

HL60 cells = test: cytotoxicity test, inhibition of cellular growth, HL60 cells; conditions: triplicate; for inhibition percentage of cellular growth: 10^−5M
Protocol: as §1, §2

KB cells [2] = test: IC50 of cytotoxicity on KB cells; conditions: in duplicate (two values per cell, separated by /)
Description: The IC50 values are expressed in μM on KB cells in duplicate and were obtained for the […] leading compounds, i.e. 27a, 32a, 44a, 37a and 46a in parallel with podophyllotoxin and etoposide.

[3] = tested on: KB, PC3, MCF7 and MCF7R, SF268, HL60, HT29, A549 cells; test: cytotoxicity tests on the panel of cell lines, overall comparison with standards; conditions: 10^−5M
Protocol: as §1, §2

[4] = Homo sapiens, read-out: inhibition percentage of cellular growth

Row | Structure (SMILES) | inhibition percentage of cellular growth (PC3 cells) | inhibition percentage of cellular growth (HT29 cells) | inhibition percentage of cellular growth (A549 cells) | inhibition percentage of cellular growth (SF268 cells) | inhibition percentage of cellular growth (KB cells [1]) | inhibition percentage of cellular growth (MCF7R cells) | inhibition percentage of cellular growth (MCF7 cells) | inhibition percentage of cellular growth (HL60 cells) | cytotoxicity compared with etoposide and podophyllotoxin (in words) (KB cells [1]) | inhibition at 10 µM (KB cells [1]) | pIC50 (KB cells [2]) | further results
1 | COc1cc(C2c3cc4c(cc3C(NC(=O)C(F)(F)C3(O)OC(CO)C(O)C(O)C3O)C3COC(=O)C23)OCO4)cc(OC)c1OC (stereo not shown) [compound 27b] | 8% | 8% | 6% | 7% | 12% | 10% | 20% | 19% |  |  |  | 
2 | COc1cc([C@@H]2c3cc4c(cc3[C@@H](NC(=O)C(F)(F)C3(Cl)O[C@H](CO)[C@@H](O)[C@H](O)[C@H]3O)C3COC(=O)[C@@H]32)OCO4)cc(OC)c1OC (stereo partly shown) [compound 37a] |  |  |  |  |  |  |  |  | cytotoxicity close to that of etoposide and podophyllotoxin | 91% | 6.51 | pIC50 (KB cells [2]; Homo sapiens, KB): 6.56
3 | COc1cc([C@@H]2c3cc4c(cc3[C@H](O)[C@H]3COC(=O)[C@H]23)OCO4)cc(OC)c1OC [Podophyllotoxin 1, Podophyllotoxin] |  |  |  |  |  |  |  |  |  | 90% | 7.66 | inhibition at 10 µM (PC3 cells; Homo sapiens, PC-3, 10^−5M, read-out: inhibition percentage of cellular growth): 65%; inhibition at 10 µM (HT29 cells; Homo sapiens, HT-29, 10^−5M, read-out: inhibition percentage of cellular growth): 84%; inhibition at 10 µM (A549 cells; [4]): 83%; inhibition at 10 µM (SF268 cells; Homo sapiens, SF-268, 10^−5M, read-out: inhibition percentage of cellular growth): 74%; inhibition at 10 µM (MCF7R cells; [4]): 55%; inhibition at 10 µM (MCF7 cells; [4]): 55%; inhibition at 10 µM (HL60 cells; Homo sapiens, HL-60, 10^−5M, read-out: inhibition percentage of cellular growth): 74%; pIC50 (KB cells [2]; Homo sapiens, KB): 7.82
4 | COc1cc([C@@H]2c3cc4c(cc3[C@@H](O[C@@H]3O[C@@H]5CO[C@@H](C)O[C@H]5[C@H](O)[C@H]3O)[C@H]3COC(=O)[C@H]23)OCO4)cc(OC)c1O [Etoposide, etoposide, reference compound] | 47% | 79% | 65% | 82% | 84% | 22% | 57% | 75% |  |  |  | 
5 | COc1cc(C2c3cc4c(cc3C(NC(=O)C(F)(F)C3(O)OC5COC(C)OC5C(O)C3O)C3COC(=O)C23)OCO4)cc(OC)c1OC (stereo not shown) [29b] | 3% | 6% | 1% | 6% | 0% | 7% | 7% | 0% |  |  |  | 
6 | COc1cc([C@@H]2c3cc4c(cc3[C@@H](NC(=O)C(F)(F)[C@]3(O)O[C@H](CO)[C@H](O)[C@H](O)[C@H]3O)[C@H]3COC(=O)[C@H]23)OCO4)cc(OC)c1O [compound 26b] | 8% | 13% | 7% | 7% | 12% | 16% | 20% | 19% |  |  |  | 
7 | COc1cc(C2c3cc4c(cc3C(NCC(F)(F)C3(O)OC5COC(C)OC5C(O)C3O)C3COC(=O)C23)OCO4)cc(OC)c1OC (stereo not shown) [compound 46a] |  |  |  |  | 86% |  |  |  | cytotoxicity close to that of etoposide and podophyllotoxin |  | 5.33 and 5.22 | 
8 | COc1cc(C2c3cc4c(cc3C(NCC(F)(F)C3(O)OC(CO)C(O)C(O)C3O)C3COC(=O)C23)OCO4)cc(OC)c1OC (stereo not shown) [compound 32a] |  |  |  |  | 94% |  |  |  | cytotoxicity close to that of etoposide and podophyllotoxin |  |  | 
9 | COc1cc([C@@H]2c3cc4c(cc3[C@@H](N(C)C(=O)C(F)(F)[C@]3(O)O[C@H](COCc5ccccc5)[C@@H](OCc5ccccc5)[C@H](OCc5ccccc5)[C@H]3OCc3ccccc3)C3COC(=O)[C@@H]32)OCO4)cc(OC)c1OC (stereo partly shown) [compound 31a] |  |  |  |  |  |  |  |  |  | 22% |  | 
10 | COc1cc(C2c3cc4c(cc3C(NC(=O)C(F)(F)C3(O)OC(CO)C(O)C(O)C3O)C3COC(=O)C23)OCO4)cc(OC)c1OC (stereo not shown) [compound 27a] | 63% | 87% | 78% | 65% | 91% | 70% | 53% | 79% |  |  | 5.46 and 5.59 | activity compared with etoposide and podophyllotoxin (in words) [3]: activity comparable with that of etoposide and of podophyllotoxin, and even better on certain cell lines
11 | COc1cc(C2c3cc4c(cc3C(NC(=O)C(F)(F)C3(O)OC5COC(C)OC5C(O)C3O)C3COC(=O)C23)OCO4)cc(OC)c1OC (stereo not shown) [29a] | 8% | 17% | 6% | 11% | 66% | 44% | 40% | 17% |  |  |  | 
12 | COc1cc([C@@H]2c3cc4c(cc3[C@@H](NC(=O)C(F)(F)[C@@H]3O[C@H](CO)[C@@H](O)[C@H](O)[C@H]3O)C3COC(=O)[C@@H]32)OCO4)cc(OC)c1OC (stereo partly shown) [compound 44a] |  |  |  |  |  |  |  |  | cytotoxicity close to that of etoposide and podophyllotoxin | 90% | 6.47 | pIC50 (KB cells [2]; Homo sapiens, KB): 6.49
13 | COc1cc([C@@H]2c3cc4c(cc3[C@@H](NC(=O)C(F)(F)[C@]3(O)O[C@H](CO)[C@@H](O)[C@H](O)[C@H]3O)[C@H]3COC(=O)[C@H]23)OCO4)cc(OC)c1O [compound 26a] | 10% | 10% | 23% | 7% | 43% | 35% | 37% | 17% |  |  |  | 
